# Like-named read-outs stand apart in the source and are kept apart here.
# Columns and labels:
# [1] = tested on: Salmonella typhimurium TA98; assay: Ames mutagenicity plate incorporation assay, TA98; assay type: cell-based; settings: average of duplicate plates
# [2] = tested on: Salmonella typhimurium TA1538; assay: Ames mutagenicity plate incorporation assay, TA1538; assay type: cell-based; settings: average of duplicate plates
# phi 6 phage [3] = assay: UV inactivation of phi 6 in human plasma or fetal bovine serum; assay type: cell-based; settings: light or radiation study, 0.5 h; Fetal bovine serum, 0.03 mg/mL, UVA 30 min. (8.4 J/cm^2); read-out: Viral Reduction (log), phi 6
# Method: (§1) Viral inactivation in FBS was carried out in 100 mL serum samples in 225 cm^2 tissue culture flask in the presence of sensitizer 8B (0.03 mg/mL). The sample was exposed to UVA light from top (3.6 mW/cm^2) and bottom (3.4 mW/cm^2) while continuously mixing on an orbital shaker for 30 min. (8.4 J/cm^2). Human plasma was irradiated in a Pyrex glass photolysis cell in the presence of sensitizer 8 (0.1 mg/mL) for 5 min. Inactivation of various bacteriophages were carried out using brominated psoralens in combination with UVA light. The results in Table 5 below clearly indicate that 5-7 logs of viral reduction was obtained with various phage (enveloped and non-enveloped) in human plasma fractions and fetal bovine serum products.
# [4] = tested on: Salmonella typhimurium TA100; assay: Ames mutagenicity plate incorporation assay, TA100; assay type: cell-based; settings: average of duplicate plates
# phi 6 bacteriophage = assay: UV inactivation of phi 6 in platelet preparations; assay type: cell-based; settings: for log reduction at 30 µg/mL: Bacteriophage sp., Platelet, light or radiation study, 10 min
# Method: (§2) Human platelet concentrates are mixed with phi 6 bacteriophage, with or without sensitizer, then exposed to U.V. light. Cell quality assays after treatment include morphology score conducted by visual inspection using a light microscope (using a Kunicki scoring system), hypotonic shock response (HSR), aggregation response induced by addition of ADP measured in an aggregometer, and cell number count.
# (§3) 1. Soft spin platelet unit at 1000 rpm for 5 min to remove RBC.
# (§4) 2. Dilute concentrated platelets with spun autologous plasma to obtain a conc. of 500×10^6 cells/ml.
# (§5) 3. Add 5×10^6 of .phi.6 to the platelet suspension and mix gently.
# (§6) 4. Add sensitizer to the platelet suspension and incubate for 15 min while protecting from light. Control samples have PBS added.
# (§7) 5. Pipet 2 ml aliquots into small plastic petri dishes and irradiate with UV while rotating samples at 100 rpm on a shaker. Irradiate samples without cover.
# (§8) 6. Transfer irradiated samples to 15 ml plastic centrifuge tubes.
# (§9) 7. Determine morphology, HSR, ADP, Viral inactivation, cell count.
# To test the viral inactivation efficiency of brominated sensitizers, platelet preparations (2 mL, PRP) were spiked with .phi.6 phage and brominated psoralen (8B) and non-brominated psoralen(8C) were added to obtain final sensitizer concentration of 0.1 mg/mL. The samples were exposed to UVA light in a home made reactor consisting of 4 UVA lamps for the indicated time periods. The petri dishes containing samples were mixed on an orbital shaker during UVA exposure. The UVA light intensity at the sample position was measured at 3.3 mW/cm^2. The residual viral titer after each time point was measured by plaque method The viral reduction values are illustrated in FIG. 26.
# Single unit platelet concentrates were obtained 24 hours after collection from certified blood banks. […] The viral inactivation values and in vitro properties of platelet concentrates were monitored for 2 days after the treatment.
# platelets [5] = assay: Platelet cell count after UV treatment; assay type: cell-based, human; settings: Treated, UVA 10 min
# Method: (§10) Single unit platelet concentrates were obtained 24 hours after collection from certified blood banks. The platelet were subjected to soft spin to remove residual RBC and about 6 logs of .phi.6 phage and sensitizer 8B were added in PBS solution to obtain 0.03 mg/mL final sensitizer concentration. The samples were transferred to Stericon™ polyolefin bag (which transmits 60% of UVA light) and irradiated from top (3.6 mW/cm^2) and bottom (3.4 mW/cm^2) in a home made reactor for 10 min. The bags were continuously mixed on extended glass platform attached to orbital shaker. The viral inactivation values and in vitro properties of platelet concentrates were monitored for 2 days after the treatment.
# [6] = tested on: Salmonella typhimurium TA1535; assay: Ames mutagenicity plate incorporation assay, TA1535; assay type: cell-based; settings: average of duplicate plates
# phi 6 phage [7] = assay: UVA inactivation of phi 6 in packed red cells; assay type: cell-based
# Method: Units of packed red cells were transferred to Stericon™ red cell freezing bags and the hematocrits were adjusted to 60% with PBS. […] The samples were mixed continuously during UVA exposure on an orbital shaker. The final viral titer in the sample was determined by the plaque method. In vitro biochemical and biophysical properties of treated red cells were monitored for 7 day following the treatment.
# The viral inactivation kinetics in red cells is dependent on the intensity of the UVA light source. The data in Table 4 below indicate that the time required to achieve 6 logs of viral reduction varies with the intensity of the UVA light source used.
# [8] = tested on: Salmonella typhimurium TA1537; assay: Ames mutagenicity plate incorporation assay, TA1537; assay type: cell-based; settings: average of duplicate plates
# salmonella mutants = assay: Standard Ames mutagenicity test, overall outcome; assay type: cell-based, Salmonella typhimurium; settings: 0.6 mg/mL; in words
# red cells = assay: Red cell in vitro properties following UVA viral inactivation treatment; assay type: cell-based, human; settings: 0.3 mg/mL
# Method: Units of packed red cells were transferred to Stericon™ red cell freezing bags and the hematocrits were adjusted to 60% with PBS. The samples were spiked with 5×10^6 PFU/mL .phi.6 phage and 0.3 mg/mL sensitizer 8B. The contents of the bag was exposed to UVA light from top (3.6 mW/cm^2) and bottom (3.4 mW/cm^2) for 6 hours (151.2 J/cm^2). The samples were mixed continuously during UVA exposure on an orbital shaker. The final viral titer in the sample was determined by the plaque method. In vitro biochemical and biophysical properties of treated red cells were monitored for 7 day following the treatment.
# platelets [9] = assay type: cell-based, human
# Method: as §2, §3, §4, §5, §6, §7, §8, §9
# The vital inactivation values and in vitro properties of platelets subjected to viral inactivation treatment using various derivatives of psoralen are summarized in Table 1.
# as §10
# bacterial phage λ = assay: UV inactivation of lambda phage in plasma or fetal bovine serum; assay type: cell-based; settings: Escherichia phage Lambda, light or radiation study, 0.5 h; Fetal bovine serum, 0.03 mg/mL, UVA 30 min. (8.4 J/cm^2); read-out: Viral Reduction (log), λ
# Method: A stock solution of bacterial phage λ is added to plasma to obtain final titre of 1.2×10^8 PFU/ml and compound No. 3 (structure given above) at 0.1 mg/ml concentration. The mixture was transferred to Pyrex glass photolysis cells and exposed to UV (300-360 nm blue lamp) for 5 minutes. After UV irradiation treatment the final viral titre and Factor VIII activity were measured as described earlier. […] About 3-6 logs of increased viral inactivation was obtained with protein coated viruses using a sensitizer. Only 10% of Factor VIII activity was recovered after viral inactivation treatment.
# as §1
# platelet concentrates = assay: pH of platelet concentrates after UV treatment; assay type: cell-based, human; settings: Treated, UVA 10 min
# Method: as §10
compound,measurement,setting,value
CC[N+](CC)(CC)CCCOc1c2occc2c(Br)c2ccc(=O)oc12 [Sensitizer 8B],Number of Revertant Colonies,[1]; w/S-9,83
same,Number of Revertant Colonies,[1]; without S-9,55
same,Number of Revertant Colonies,[2]; w/S-9,25
same,Number of Revertant Colonies,[2]; without S-9,22
same,log reduction at 30 µg/mL,phi 6 phage [3],6.5
same,Number of Revertant Colonies,[4]; w/S-9,245
same,Number of Revertant Colonies,[4]; without S-9,164
same,"fold improvement in the level of viral inactivation, brominated (8B) vs non-brominated (8C)","phi 6 bacteriophage; 0.1 mg/mL, UVA 3.3 mW/cm^2",≤ 400 fold
same,log reduction at 30 µg/mL,phi 6 bacteriophage; read-out: V.I (log10),5.3
same,log reduction at 30 µg/mL,phi 6 bacteriophage; read-out: viral reduction,> 5.3
same,Cell count,platelets [5]; 0 Hour,474
same,Cell count,platelets [5]; 24 Hours,499
same,Cell count,platelets [5]; 48 Hours,506
same,Number of Revertant Colonies,[6]; w/S-9,197
same,Number of Revertant Colonies,[6]; without S-9,173
same,Time Required for 6.0 logs V.I.,"phi 6 phage [7]; UV Reactor 1, Top, 3.3 mW/cm^2, 0.1 mg/mL, n = 1",16.4 Hours
same,Time Required for 6.0 logs V.I.,"phi 6 phage [7]; UV Reactor 2, Top + Bottom, 3.6/3.4 mW/cm^2, 0.1 mg/mL, n = 9",7.0 ± 1.2 Hours
same,Time Required for 6.0 logs V.I.,"phi 6 phage [7]; UV Reactor 3, Top + Bottom, 40/40 mW/cm^2, 0.1 mg/mL, n = 3",1.3 ± 0.4 Hours
same,Number of Revertant Colonies,[8]; w/S-9,26
same,Number of Revertant Colonies,[8]; without S-9,36
same,Ames mutagenicity,salmonella mutants,non-mutagenic
same,alterations in in vitro biochemical and biophysical properties,"red cells; UVA 6 hours, in words",without any significant alterations in in vitro biochemical and biophysical properties
same,% Hemochrome,"red cells; Treated, Day 1, UVA 6 hours",1.9%
same,DI Max % control (deformability index),"red cells; Treated, Day 1, UVA 6 hours",97.4 % control
same,MCV,"red cells; Treated, Day 1, UVA 6 hours (151.2 J/cm^2)",88.8
same,% Hemochrome,"red cells; Treated, Day 2, UVA 6 hours",0.6%
same,DI Max % control (deformability index),"red cells; Treated, Day 2, UVA 6 hours",99.6 % control
same,% Hemochrome,"red cells; Treated, Day 7, UVA 6 hours",0.2%
same,DI Max % control (deformability index),"red cells; Treated, Day 7, UVA 6 hours",99.0 % control
same,ADP Agg.,platelets [9],26 ± 10
same,log reduction at 30 µg/mL,bacterial phage λ,6.6
same,pH,platelet concentrates; 0 Hour,7.2
same,pH,platelet concentrates; 24 Hours,7.1
same,pH,platelet concentrates; 48 Hours,6.8

# Reference: patent US5587490A, “Method of inactivation of viral and bacterial blood contaminants” (Credit Managers Association of California, priority 1993, dated 1996)
